Reference: ChEMBL document CHEMBL5634158, “From garden to lab: C-3 chemical modifications of tomatidine unveil broad-spectrum ATP synthase inhibitors to combat bacterial resistance” (Eur J Med Chem, 2023)

Columns and labels:
Escherichia coli [1] = experiment: Antibacterial activity against Escherichia coli ATCC 25922 assessed as reduction in microbial growth incubated for 20 hrs under aerobic condition by CLSI based broth microdilution method; format: functional
Staphylococcus aureus [2] = experiment: Antibacterial activity against Staphylococcus aureus ATCC 29213 assessed as reduction in microbial growth incubated for 20 hrs under aerobic condition by CLSI based broth microdilution method; format: functional
[3] = Inhibition of Escherichia coli ATCC 25922 ATP synthase activity preincubated for 30 mins followed by NADH/ADP addition and measured after 60 mins by luciferin/luciferase luminescence assay
Escherichia coli [4] = experiment: Antibacterial activity against Escherichia coli MC4100 harbouring lptD mutant assessed as reduction in bacterial growth by CLSI based broth microdilution method; format: functional
Escherichia coli [5] = experiment: Antibacterial activity against Escherichia coli MC4100 harbouring acrAB mutant assessed as reduction in bacterial growth by CLSI based broth microdilution method; format: functional
Escherichia coli [6] = experiment: Antibacterial activity against Escherichia coli MC4100 assessed as reduction in bacterial growth by CLSI based broth microdilution method; format: functional
Staphylococcus aureus [7] = experiment: Antibacterial activity against Staphylococcus aureus ATCC 29213 hemB SCV assessed as reduction in microbial growth incubated for 20 hrs under aerobic condition by CLSI based broth microdilution method; format: functional

MIC (Staphylococcus aureus [7]) | SMILES | MIC (Escherichia coli [1]) | MIC (Staphylococcus aureus [2]) | IC50 [3] | MIC (Escherichia coli [4]) | MIC (Escherichia coli [5]) | MIC (Escherichia coli [6])
– | C[C@H]1CC[C@]2(NC1)O[C@H]1C[C@H]3[C@@H]4CC[C@H]5CC(NC[C@@H](N)Cc6ccc(-c7ccccc7)cc6)CC[C@]5(C)[C@H]4CC[C@]3(C)[C@H]1[C@@H]2C (mixture of isomers) | 8 µg/mL | 2 µg/mL | 3400 nM | 2 µg/mL | 8 µg/mL | 8 µg/mL
≤ 0.25 µg/mL | C[C@H]1CC[C@]2(NC1)O[C@H]1C[C@H]3[C@@H]4CC[C@H]5CC(NC[C@@H](N)Cc6ccc(F)cc6)CC[C@]5(C)[C@H]4CC[C@]3(C)[C@H]1[C@@H]2C (mixture of isomers) | 32 µg/mL | 4 µg/mL | – | – | – | –
– | C[C@H]1CC[C@]2(NC1)O[C@H]1C[C@H]3[C@@H]4CC[C@H]5CC(N[C@@H]6CCNC6)CC[C@]5(C)[C@H]4CC[C@]3(C)[C@H]1[C@@H]2C (mixture of isomers) | 64 µg/mL | 32 µg/mL | 4700 nM | 32 µg/mL | 32 µg/mL | 64 µg/mL
≤ 0.25 µg/mL | C[C@H]1CC[C@]2(NC1)O[C@H]1C[C@H]3[C@@H]4CC[C@H]5CC(NC[C@@H](N)Cc6ccc(Cl)cc6Cl)CC[C@]5(C)[C@H]4CC[C@]3(C)[C@H]1[C@@H]2C (mixture of isomers) | 8 µg/mL | 2 µg/mL | – | – | – | –
– | C[C@H]1CC[C@]2(NC1)O[C@H]1C[C@H]3[C@@H]4CC[C@H]5CC(NC[C@@H](N)Cc6c[nH]c7ccccc67)CC[C@]5(C)[C@H]4CC[C@]3(C)[C@H]1[C@@H]2C (mixture of isomers) | 8 µg/mL | 2 µg/mL | 1900 nM | 2 µg/mL | 4 µg/mL | 16 µg/mL
– | C[C@H]1CC[C@]2(NC1)O[C@H]1C[C@H]3[C@@H]4CC[C@H]5CC(NC[C@@H](N)Cc6ccncc6)CC[C@]5(C)[C@H]4CC[C@]3(C)[C@H]1[C@@H]2C (mixture of isomers) | > 128 µg/mL | 16 µg/mL | 1500 nM | 16 µg/mL | 32 µg/mL | > 128 µg/mL
– | C[C@H]1CC[C@]2(NC1)O[C@H]1C[C@H]3[C@@H]4CC[C@H]5CC(NC[C@@H](N)Cc6ccccc6)CC[C@]5(C)[C@H]4CC[C@]3(C)[C@H]1[C@@H]2C (mixture of isomers) | 32 µg/mL | 4 µg/mL | 1300 nM | 4 µg/mL | 8 µg/mL | 32 µg/mL
– | C[C@H]1CC[C@]2(NC1)O[C@H]1C[C@H]3[C@@H]4CC[C@H]5CC(NCCN6CCCC6)CC[C@]5(C)[C@H]4CC[C@]3(C)[C@H]1[C@@H]2C (mixture of isomers) | 64 µg/mL | – | 900 nM | 0.5 µg/mL | 8 µg/mL | 64 µg/mL
2 µg/mL | C[C@H]1CC[C@]2(NC1)O[C@H]1C[C@H]3[C@@H]4CC[C@H]5CC(NC[C@@H](N)Cc6cccc(C(F)(F)F)c6)CC[C@]5(C)[C@H]4CC[C@]3(C)[C@H]1[C@@H]2C (mixture of isomers) | 8 µg/mL | 5 µg/mL | – | – | – | –
– | C[C@H]1CC[C@]2(NC1)O[C@H]1C[C@H]3[C@@H]4CC[C@H]5CC(NC[C@@H](N)Cc6ccc7ccccc7c6)CC[C@]5(C)[C@H]4CC[C@]3(C)[C@H]1[C@@H]2C (mixture of isomers) | 8 µg/mL | 1 µg/mL | 2000 nM | 8 µg/mL | 4 µg/mL | 16 µg/mL
1 µg/mL | C[C@H]1CC[C@]2(NC1)O[C@H]1C[C@H]3[C@@H]4CC[C@H]5CC(NC[C@@H](N)Cc6ccc(C(F)(F)F)cc6)CC[C@]5(C)[C@H]4CC[C@]3(C)[C@H]1[C@@H]2C (mixture of isomers) | 8 µg/mL | 2 µg/mL | – | – | – | –
